Laboratory results as given in EP4582418A1, “CRYSTALLINE FORM OF QUINOLINE DERIVATIVE INHIBITOR, PREPARATION METHOD THEREFOR AND USE THEREOF” (TransThera Sciences (Nanjing), Inc., priority 2022, dated 2024).

Experiment: Stability test under influencing factors (high temperature, high humidity, illumination)
Format: physicochemical
Description: Test substances: the crystal forms I, II, III, and IV of the methanesulfonate of the compound of formula (I) of the present disclosure.
Methodology: Appropriate amounts of samples of the crystal forms I, II, III, and IV of the methanesulfonate of the compound of formula (I) were separately left to stand open under the conditions of a high temperature (60 °C), a high humidity (RH 92.5%), and illumination (4500±500 Lux); sampling was performed on days 5, 10, and 30 to investigate changes in the appearance, purity, and crystal form of the samples.

[1] = Left to stand open at 60 °C for 5 days
[2] = Left to stand open at 60 °C for 10 days
[3] = Left to stand open at 60 °C for 30 days
[4] = Left to stand open at RH 92.5% for 5 days
[5] = Left to stand open at RH 92.5% for 10 days
[6] = Left to stand open at RH 92.5% for 30 days
[7] = Left to stand open under illumination (4500±500 Lux) for 5 days
[8] = Left to stand open under illumination (4500±500 Lux) for 10 days
[9] = Left to stand open under illumination (4500±500 Lux) for 30 days

Appearance (0 days): White or off-white solid
Purity (0 days): 99.69%
Appearance [1]: White or off-white solid
Purity [1]: 99.70%
Appearance [2]: White or off-white solid
Purity [2]: 99.68%
Appearance [3]: White or off-white solid
Purity [3]: 99.67%
Appearance [4]: White or off-white solid
Purity [4]: 99.69%
Appearance [5]: White or off-white solid
Purity [5]: 99.68%
Appearance [6]: White or off-white solid
Purity [6]: 99.67%
Appearance [7]: White or off-white solid
Purity [7]: 99.70%
Appearance [8]: White or off-white solid
Purity [8]: 99.69%
Appearance [9]: White or off-white solid
Purity [9]: 99.69%
changes in the appearance and purity (left to stand under conditions of the influencing factors for 30 days): no significant changes
SMILES: COc1cc2nccc(Oc3ccc(NC(=O)c4nn(C(C)C)cc(-c5ccc(F)cc5)c4=O)nc3)c2cc1OC [Crystal form I, N-(5-((6,7-dimethoxyquinolin-4-yl)oxy)pyridin-2-yl)-5-(4-fluorophenyl)-1-isopropyl-4-oxo-1,4-dihydropyridazine-3-carboxamide]
